From PubChem BioAssay AID342 (DTP/NCI, 2004)
Values joined by “and” are separate entries in the source; they are usually repeats but may differ in a detail not shown here. Equal values may be shown once.

Test system: Swiss mice, Sarcoma 180 sc, mean tumor weight T/C
Assay: NCI In Vivo Anticancer Drug Screen. Data for tumor model Sarcoma 180 (subcutaneous) in Swiss mice
Conditions: endpoint: mean tumor weight, higher = larger tumour
Method in brief: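 Transplantable tumors were established in mice, compound was given, then survival or tumor size was recorded. The treated value was divided by the vehicle-control value.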

N#[N+]c1nc2ncnc(N)c2[nH]1 was tested, and the T/C (dose: 6.25 mg/kg/injection, schedule: Q#A X014 (ip), vehicle: saline) was 66 % of control, the T/C (dose: 12.5 mg/kg/injection, schedule: Q#A X014 (ip), vehicle: saline) was 65 % of control and the T/C (dose: 25.0 mg/kg/injection, schedule: Q#A X014 (ip), vehicle: saline) was 86 % of control.

For [Cu+2].[O-]c1ccc(Br)c2cccnc12.[O-]c1ccc(Br)c2cccnc12, the T/C (dose: 4.2 mg/kg/injection, schedule: Q01DX007 (ip), vehicle: carboxymethylcellulose (CMC)) was 71 % of control, the T/C (dose: 6.2 mg/kg/injection, schedule: Q01DX007 (ip), vehicle: carboxymethylcellulose (CMC)) was 66 % of control and the T/C (dose: 14.0 mg/kg/injection, schedule: Q01DX007 (ip), vehicle: other) was 63 % of control. For the same compound, the T/C (dose: 21.0 mg/kg/injection, schedule: Q01DX007 (ip), vehicle: other) was 39 % of control and the T/C (dose: 32.0 mg/kg/injection, schedule: Q01DX007 (ip), vehicle: other) was 26 % of control.

For Cc1ccc(S(=O)(=O)N=S2CCCC2)cc1, the T/C (dose: 111.0 mg/kg/injection, schedule: Q#A X014 (ip), vehicle: water) was 90 % of control, the T/C (dose: 166.5 mg/kg/injection, schedule: Q#A X014 (ip), vehicle: water) was 107 % of control and the T/C (dose: 250.0 mg/kg/injection, schedule: Q#A X014 (ip), vehicle: water) was 91 % of control. For the same compound, the T/C (dose: 375.0 mg/kg/injection, schedule: Q#A X014 (ip), vehicle: water) was 66 % of control.

For Nc1nc(SC2=NCCN2)c2[nH]cnc2n1, the T/C (dose: 1.25 mg/kg/injection, schedule: Q01DX007 (ip), vehicle: carboxymethylcellulose (CMC)) was 57 % of control, the T/C (dose: 2.5 mg/kg/injection, schedule: Q01DX007 (ip), vehicle: carboxymethylcellulose (CMC)) was 67 % of control and the T/C (dose: 5.0 mg/kg/injection, schedule: Q01DX007 (ip), vehicle: carboxymethylcellulose (CMC)) was 57 % of control.

In the case of COc1ccc2c(c1O)-c1c(OC)c(OC)cc3c1[C@H](C2)[N+](C)(C)CC3, the T/C (dose: 2.5 mg/kg/injection, schedule: Q01DX007 (ip), vehicle: saline) is reported as 108 % of control and the T/C (dose: 5.0 mg/kg/injection, schedule: Q01DX007 (ip), vehicle: saline) is reported as 100 % of control.

Nc1cccc2c(=O)[nH][nH]c(=O)c12 was tested, and the T/C (dose: 62.5 mg/kg/injection, schedule: Q01DX007 (ip), vehicle: water) was 119 % of control, the T/C (dose: 125.0 mg/kg/injection, schedule: Q01DX007 (ip), vehicle: water) was 118 % of control and the T/C (dose: 250.0 mg/kg/injection, schedule: Q01DX007 (ip), vehicle: water) was 61 % of control. For the same compound, the T/C (dose: 375.0 mg/kg/injection, schedule: Q01DX007 (ip), vehicle: water) was 85 % of control.

In the case of O=NN1CCN(N=O)CC1, the T/C (dose: 5.06 mg/kg/injection, schedule: Q#A X014 (ip), vehicle: carboxymethylcellulose (CMC)) is reported as 100 % of control, the T/C (dose: 20.25 mg/kg/injection, schedule: Q#A X014 (ip), vehicle: carboxymethylcellulose (CMC)) is reported as 101 % of control and the T/C (dose: 40.5 mg/kg/injection, schedule: Q#A X014 (ip), vehicle: carboxymethylcellulose (CMC)) is reported as 88 % of control.

In the case of CC(=O)OCC(=O)[C@@]1(O)CC[C@H]2[C@@H]3C[C@H](C)C4=CC(=O)C=C[C@]4(C)[C@@]3(F)[C@@H](O)C[C@@]21C, the T/C (dose: 125.0 mg/kg/injection, schedule: Q01DX007 (sc), vehicle: steriod suspending solution) is reported as 41 % of control and the T/C (dose: 187.0 mg/kg/injection, schedule: Q01DX007 (sc), vehicle: steriod suspending solution) is reported as 30 % of control.

CCOC(C)C(/C=N/NC(N)=S)=NNC(N)=S (stereo not given) was tested, and the T/C (dose: 15.0 mg/kg/injection, schedule: Q01DX007 (ip), vehicle: saline) was 82 % of control, the T/C (dose: 30.0 mg/kg/injection, schedule: Q01DX007 (ip), vehicle: saline) was 37 % of control and the T/C (dose: 60.0 mg/kg/injection, schedule: Q01DX007 (ip), vehicle: saline) was 47 % of control. For the same compound, the T/C (dose: 120.0 mg/kg/injection, schedule: Q01DX007 (ip), vehicle: saline) was 20 % of control.

For Cc1ccccc1N(C=O)c1ccccc1C, the T/C (dose: 120.0 mg/kg/injection, schedule: Q01DX007 (ip), vehicle: methylcellulose (MC)) was 164 % of control, the T/C (dose: 200.0 mg/kg/injection, schedule: Q01DX007 (ip), vehicle: methylcellulose (MC)) was 150 % of control and the T/C (dose: 1000.0 mg/kg/injection, schedule: Q01DX007 (ip), vehicle: methylcellulose (MC)) was 104 % of control.

In the case of CN(C)Cc1c[nH]c2ccccc12, the T/C (dose: 62.5 mg/kg/injection, schedule: Q01DX007 (ip), vehicle: carboxymethylcellulose (CMC)) is reported as 69 % of control.

S=P(N1CC1)(N1CC1)N1CC1 was tested, and the T/C (dose: 0.43 mg/kg/injection, schedule: Q01DX007 (ip), vehicle: carboxymethylcellulose (CMC)) was 91 % of control, the T/C (dose: 0.87 mg/kg/injection, schedule: Q01DX007 (ip), vehicle: carboxymethylcellulose (CMC)) was 85 % of control and the T/C (dose: 1.75 mg/kg/injection, schedule: Q01DX007 (ip), vehicle: carboxymethylcellulose (CMC)) was 104 % of control. The T/C (dose: 3.5 mg/kg/injection, schedule: Q01DX007 (ip), vehicle: carboxymethylcellulose (CMC)) was 65 % of control, the T/C (dose: 218.5 mg/kg/injection, schedule: Q#A X014 (ip), vehicle: carboxymethylcellulose (CMC)) was 108 % of control and the T/C (dose: 437.5 mg/kg/injection, schedule: Q#A X014 (ip), vehicle: carboxymethylcellulose (CMC)) was 110 % of control. For the same compound, the T/C (dose: 875.0 mg/kg/injection, schedule: Q#A X014 (ip), vehicle: carboxymethylcellulose (CMC)) was 46 % of control.

CCCCCCCCCCCCCCCC[N+]1(C)CCN(SN2CC[N+](C)(CCCCCCCCCCCCCCCC)CC2)CC1 was tested, and the T/C (dose: 21.0 mg/kg/injection, schedule: Q#A X014 (ip), vehicle: saline) was 55 % of control and 77 % of control, the T/C (dose: 31.5 mg/kg/injection, schedule: Q#A X014 (ip), vehicle: saline) was 53 % of control and 76 % of control and the T/C (dose: 47.5 mg/kg/injection, schedule: Q#A X014 (ip), vehicle: saline) was 65 % of control. The T/C (dose: 71.5 mg/kg/injection, schedule: Q#A X014 (ip), vehicle: saline) was 37 % of control.

For O=C(Nc1ccc(Sc2ccc(N=Nc3c(O)c(S(=O)(=O)O)cc4cc(S(=O)(=O)O)ccc34)cc2)cc1)c1ccc(N=Nc2ccc3c(S(=O)(=O)O)cccc3c2O)cc1, the T/C (dose: 55.0 mg/kg/injection, schedule: Q01DX007 (ip), vehicle: carboxymethylcellulose (CMC)) was 68 % of control and 78 % of control, the T/C (dose: 84.0 mg/kg/injection, schedule: Q01DX007 (ip), vehicle: carboxymethylcellulose (CMC)) was 72 % of control and 75 % of control and the T/C (dose: 125.0 mg/kg/injection, schedule: Q01DX007 (ip), vehicle: carboxymethylcellulose (CMC)) was 28 % of control. For the same compound, the T/C (dose: 188.0 mg/kg/injection, schedule: Q01DX007 (ip), vehicle: carboxymethylcellulose (CMC)) was 25 % of control.

For CCCCOP(=S)(N1CC1)N1CC1, the T/C (dose: 0.25 mg/kg/injection, schedule: Q01DX007 (ip), vehicle: saline) was 97 % of control, the T/C (dose: 0.5 mg/kg/injection, schedule: Q01DX007 (ip), vehicle: saline) was 73 % of control and the T/C (dose: 0.75 mg/kg/injection, schedule: Q01DX007 (ip), vehicle: other) was 124 % of control. For the same compound, the T/C (dose: 0.75 mg/kg/injection, schedule: Q01DX007 (ip), vehicle: saline) was 86 % of control, the T/C (dose: 1.0 mg/kg/injection, schedule: Q01DX007 (ip), vehicle: saline) was 70 % of control and the T/C (dose: 1.5 mg/kg/injection, schedule: Q01DX007 (ip), vehicle: other) was 79 % of control. The T/C (dose: 1.5 mg/kg/injection, schedule: Q01DX007 (ip), vehicle: saline) was 70 % of control, the T/C (dose: 1.8 mg/kg/injection, schedule: Q01DX007 (ip), vehicle: saline) was 33 % of control and the T/C (dose: 2.8 mg/kg/injection, schedule: Q01DX007 (ip), vehicle: saline) was 9 % of control. The T/C (dose: 3.0 mg/kg/injection, schedule: Q01DX007 (ip), vehicle: other) was 87 % of control, the T/C (dose: 3.0 mg/kg/injection, schedule: Q01DX007 (ip), vehicle: saline) was 57 % of control and the T/C (dose: 4.3 mg/kg/injection, schedule: Q01DX007 (ip), vehicle: saline) was 11 % of control. For the same compound, the T/C (dose: 6.0 mg/kg/injection, schedule: Q01DX007 (ip), vehicle: other) was 91 % of control, the T/C (dose: 6.0 mg/kg/injection, schedule: Q01DX007 (ip), vehicle: saline) was 31 % of control and the T/C (dose: 6.6 mg/kg/injection, schedule: Q01DX007 (ip), vehicle: saline) was 3 % of control. For the same compound, the T/C (dose: 7.5 mg/kg/injection, schedule: Q#A X014 (ip), vehicle: saline) was 28 % of control, the T/C (dose: 10.0 mg/kg/injection, schedule: Q01DX007 (ip), vehicle: other) was 103 % of control and the T/C (dose: 10.0 mg/kg/injection, schedule: Q01DX007 (ip), vehicle: saline) was 17 % of control. For the same compound, the T/C (dose: 10.0 mg/kg/injection, schedule: Q## X000 (ip), vehicle: saline) was 17 % of control, the T/C (dose: 15.0 mg/kg/injection, schedule: Q## X000 (ip), vehicle: saline) was 2 % of control and the T/C (dose: 22.5 mg/kg/injection, schedule: Q## X000 (ip), vehicle: saline) was 3 % of control.
